According to patent publication US6645969B1, “Aryl and heteroaryl quinazoline compounds which inhibit CSF-1R receptor tyrosine kinase” (Aventis Pharmaceuticals Inc., priority 1991, dated 2003):

Key:
p56^Ick tyrosine kinase = molecular target: T1, p56^Ick tyrosine kinase (Homo sapiens, UniProt P06239); assay: Ick kinase cell-free assay (immunoprecipitated from Jurkat lysate); type: biochemical
T1 construct: samples containing Ick immuno-precipitated from 2×10^6 cells; endogenous in cells; host or cells: Jurkat (human T-cell leukemia, ATCC clone E6-1)
T1 sequence (P06239 whole entry): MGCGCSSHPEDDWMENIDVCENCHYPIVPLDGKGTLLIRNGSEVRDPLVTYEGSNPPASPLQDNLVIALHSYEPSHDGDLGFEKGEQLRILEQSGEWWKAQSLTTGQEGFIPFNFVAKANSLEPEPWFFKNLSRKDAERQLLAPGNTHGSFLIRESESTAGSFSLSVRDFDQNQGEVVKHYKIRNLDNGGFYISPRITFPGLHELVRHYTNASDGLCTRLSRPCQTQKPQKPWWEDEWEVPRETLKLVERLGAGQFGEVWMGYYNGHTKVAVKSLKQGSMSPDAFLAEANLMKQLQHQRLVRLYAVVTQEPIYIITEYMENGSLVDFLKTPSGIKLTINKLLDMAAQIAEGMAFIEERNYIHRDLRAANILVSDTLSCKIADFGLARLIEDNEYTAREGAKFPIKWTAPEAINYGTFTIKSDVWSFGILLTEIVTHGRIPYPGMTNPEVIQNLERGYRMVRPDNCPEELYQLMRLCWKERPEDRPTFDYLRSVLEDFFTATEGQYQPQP
Description: Ick Kinase: Immunoprecipitated from Jurkat Lysate
B. Cells are grown to 1-1.5×10^6 cells/ml media, pelleted by centrifugation, and lysed in lysis buffer at 10^8 cells/ml buffer (50 mM tris (pH 8), 150 mM NaCl, 5 mM EDTA, 10% glycerol, and 1% NP-40, to which fresh protease and phosphatase inhibitors are added as described above for A431 lysate). Lysates stored at −70° C.
C. Immunoprecipitation: 3-4 mg Protein-A sepharose/sample washed 2×20 mM Hepes (pH 7.5). 1 ul α-Ick antibody (prepared as polyclonals in rabbits using a peptide antigen corresponding to the N-terminal region of human Ick) per sample added to the Protein-A and shaken 20 min at room temperature. After washing 3× HNTG, lysate from 2×10^6 cells is added to each sample, rotated 2 hr at 4° C., then washed 3× HNTG (2nd wash containing 0.5 N NaCl). If all samples contain identical concentrations of the enzyme, then the immuno-precipitation can be done in bulk and alloquoted to appropriate numbers of tubes prior to assay set-up.
Samples are analyzed by 5-15% SDS-PAGE and autoradiography as described for EGFR kinase assays.

CSF-1R tyrosine kinase = molecular target: T2, CSF-1R tyrosine kinase (Homo sapiens, UniProt P07333); assay: CSF-1R cell-free autophosphorylation assay; type: biochemical
T2 construct: host or cells: unnamed cell lysate ('stimulated lysate')
T2 sequence (P07333 20-972): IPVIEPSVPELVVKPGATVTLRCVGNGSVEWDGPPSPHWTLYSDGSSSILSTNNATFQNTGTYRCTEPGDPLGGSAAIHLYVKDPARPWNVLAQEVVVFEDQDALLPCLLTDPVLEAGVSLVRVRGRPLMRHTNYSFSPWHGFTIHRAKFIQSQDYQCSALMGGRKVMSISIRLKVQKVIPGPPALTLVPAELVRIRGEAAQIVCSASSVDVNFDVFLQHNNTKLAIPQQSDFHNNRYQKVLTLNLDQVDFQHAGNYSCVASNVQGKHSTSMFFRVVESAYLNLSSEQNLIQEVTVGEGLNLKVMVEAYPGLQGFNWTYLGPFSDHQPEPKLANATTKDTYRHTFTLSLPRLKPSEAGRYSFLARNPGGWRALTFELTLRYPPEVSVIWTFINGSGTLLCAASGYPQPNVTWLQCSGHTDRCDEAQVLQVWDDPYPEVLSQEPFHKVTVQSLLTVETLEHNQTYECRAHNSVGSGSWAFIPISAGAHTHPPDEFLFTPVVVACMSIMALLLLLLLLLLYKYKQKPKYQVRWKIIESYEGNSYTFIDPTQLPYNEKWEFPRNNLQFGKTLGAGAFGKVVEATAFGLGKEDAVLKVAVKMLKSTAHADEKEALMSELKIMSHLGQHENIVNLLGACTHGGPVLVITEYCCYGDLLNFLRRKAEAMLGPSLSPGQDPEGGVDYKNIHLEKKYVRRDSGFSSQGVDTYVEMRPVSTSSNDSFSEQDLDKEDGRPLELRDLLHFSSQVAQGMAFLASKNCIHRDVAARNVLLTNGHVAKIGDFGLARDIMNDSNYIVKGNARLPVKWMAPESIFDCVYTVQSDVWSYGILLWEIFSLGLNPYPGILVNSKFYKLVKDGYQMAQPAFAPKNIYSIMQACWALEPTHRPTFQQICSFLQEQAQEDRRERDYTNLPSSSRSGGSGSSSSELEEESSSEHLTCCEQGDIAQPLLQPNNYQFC
Description: CSF-1R Cell-free Autophosphorylation Assay
For a regular 28 tube assay (14 samples per 15 well gel):
In 2 ml eppendorf tube: 140 mg protein A sepharose (5 mg/sample)
Swell in 20 mM Hepes pH 7.5 and wash 2× in Hepes
In 15 ml tube: 2.8 ml lysate lysis buffer: 20 mM Hepes
Protease inhibitors added fresh:
PMSF: 8 mg/ml=[…] in 100% EtOH, store frozen, add 100 λ/10 ml lysis buffer Aprotinin: 10 mg/ml=250× in H2O, store frozen, add 40 λ/10 ml lysis buffer Leupeptin: 1 mg/ml=250× in H2O, store frozen, add 40 λ/10 ml lysis buffer Add washed beads to stimulated lysate and incubate 90 min 4° C. on rotator or shaking prepare 28 compound tubes: make 40 mM solutions of compounds in 100% DMSO make serial dilutions in 50 mM Tris pH 7.5+10 mM MnCl2 aliquot 10λ compound solution into each 1 ml eppendorf reaction tube waiting on ice, control blanks get 10λ buffer Wash beads 1×HNTG, 2×10 mM Tris pH 7.5
2.7λ cold ATP (stock of 10 mM in 50 mM
Vortex, incubate 10 min on ice
Add 45λ 2×SDS-sample buffer, heat 95° C. 6 min
7.5% SDS-PAGE, fix, dry, expose (usually 4 hrs)

COc1cccc(Sc2ncnc3cc(OC)c(OC)cc23)c1
IC50 (p56^Ick tyrosine kinase): 5 µM
IC50 (CSF-1R tyrosine kinase): 1 µM

COc1cc2ncnc(NC3CCCCC3)c2cc1OC
IC50 (CSF-1R tyrosine kinase): > 50 µM

COc1cc2ncnc(N(C)c3ccccc3)c2cc1OC
IC50 (p56^Ick tyrosine kinase): > 50 µM
IC50 (CSF-1R tyrosine kinase): 0.5 µM

COc1cc2ncnc(Oc3cccc(Cl)c3)c2cc1OC [Example 1, 4-(3-Chlorophenoxy)-6,7-dimethoxyquinazoline]
melting point: 152 to 153 °C

COc1cc2ncnc(Nc3ccc4ccccc4c3)c2cc1OC
IC50 (CSF-1R tyrosine kinase): > 50 µM

CCN(c1ccccc1)c1ncnc2cc(OC)c(OC)cc12
IC50 (p56^Ick tyrosine kinase): > 50 µM
IC50 (CSF-1R tyrosine kinase): 4 µM

COc1cc2ncnc(-c3cccc(-c4ccccc4)c3)c2cc1OC
IC50 (p56^Ick tyrosine kinase): 2.9 µM
IC50 (CSF-1R tyrosine kinase): 15 µM

COc1cc2ncnc(NCc3ccccc3)c2cc1OC
IC50 (p56^Ick tyrosine kinase): 20 µM
IC50 (CSF-1R tyrosine kinase): ≥ 20 µM

COc1cc2ncnc(-c3ccsc3)c2cc1OC
IC50 (p56^Ick tyrosine kinase): > 10 µM
IC50 (CSF-1R tyrosine kinase): 6 µM

COc1cc2ncnc(Oc3cccc(Cl)c3)c2cc1OC [drawing 19]
IC50 (p56^Ick tyrosine kinase): 1 µM
IC50 (CSF-1R tyrosine kinase): > 50 µM

COc1cc2ncnc(Nc3cc(OC)c(OC)c(OC)c3)c2cc1OC
IC50 (CSF-1R tyrosine kinase): > 100 µM

COc1ccc(Nc2ncnc3cc(OC)c(OC)cc23)cc1OC
IC50 (CSF-1R tyrosine kinase): > 20 µM

COc1cc2ncnc(Nc3cccc4ccccc34)c2cc1OC
IC50 (p56^Ick tyrosine kinase): 2.5 µM
IC50 (CSF-1R tyrosine kinase): > 50 µM

COc1cc2ncnc(Sc3cccc(Cl)c3)c2cc1OC
IC50 (p56^Ick tyrosine kinase): 2.5 µM
IC50 (CSF-1R tyrosine kinase): 3 µM

COc1cc2ncnc(Oc3cc(OC)c(OC)c(OC)c3)c2cc1OC
IC50 (p56^Ick tyrosine kinase): 5 µM
IC50 (CSF-1R tyrosine kinase): > 50 µM

COc1cc(Nc2ncnc3cc(OC)c(OC)cc23)cc(OC)c1
IC50 (CSF-1R tyrosine kinase): > 100 µM
